# Columns and labels:
# [1] = Measurement of absorption maximum of near infrared absorbing compound in solution; type: physicochemical
# Excerpt: In addition, in the present invention, a case where the near infrared absorbing compound “has an absorption maximum in a wavelength range of 650 to 1000 nm” represents the near infrared absorbing compound has a maximum absorbance in a wavelength range of 650 to 1000 nm in an absorption spectrum of the near infrared absorbing compound in a solution. A measurement solvent used for measuring an absorption spectrum of the near infrared absorbing compound in the solution is not particularly limited as long as the near infrared absorbing compound is soluble therein. From the viewpoint of solubility, for example, chloroform, dimethylformamide, tetrahydrofuran, or methylene chloride can be used. For example, in the case of a compound which is soluble in chloroform, chloroform is used as the measurement solvent. In the case of a compound which is not soluble in chloroform, methylene chloride is used. In addition, in the case of a compound which is not soluble in chloroform and methylene chloride, dimethylformamide is used. In addition, in the case of a compound which is not soluble in chloroform, methylene chloride, and dimethylformamide, tetrahydrofuran is used.
# <Measurement of Absorption Maximum of Near Infrared Absorbing Compound>
# A near infrared absorbing compound shown in the following tables was dissolved in a measurement solvent shown in the following tables to prepare a sample solution. Using a spectrophotometer U-4100 (manufactured by Hitachi High-Technologies Corporation), an absorbance of the sample solution in a wavelength range of 300 to 1300 nm was measured to obtain an absorption maximum.
# physchem = conditions: 25 °C, organic solvent or mixture, thermodynamic from solid
# Experimental: (§1) Under the atmospheric pressure, about 100 mg (a precisely weighed value is represented by X mg) of the near infrared absorbing compound is added to 1 L of propylene glycol methyl ether acetate at 25° C., and the components are stirred for 30 minutes. Next, the solution is left to stand for 5 minutes and then is filtered, and the filtrate is dried under reduced pressure at 80° C. for 2 hours is precisely weighed (a precisely weighed value is represented by Y mg). The solubility of the near infrared absorbing compound dissolved in propylene glycol methyl ether acetate is calculated from the following expression.
# [2] = Measurement of solubility of near infrared absorbing compound in propylene glycol methyl ether acetate; conditions: for solubility at 30 min: propylene glycol methyl ether acetate, 25 °C, organic solvent or mixture, thermodynamic from solid
# Experimental: as §1
compound,measurement,setting,value
CC1N(C)c2cc(NC(=O)c3ccc4c(c3)C(=O)N(C)C4=O)c(C3=C([O-])/C(=c4\cc5c(cc4NC(=O)c4ccc6c(c4)C(=O)N(C)C6=O)=[N+](C)C(C)C5(C)C)C3=O)cc2C1(C)C (stereo not drawn) [Example A-24],Absorption Maximum,[1]; measurement solvent Chloroform,711 nm
same,solubility at 30 min,physchem,7.88 µg/mL
CCNC(=O)NC1=CC(=[N+](CC)CC)C=C/C1=C1/C(=O)C(c2ccc(N(CC)CC)cc2NC(=O)NCC)=C1[O-] [Example A-25],Absorption Maximum,[1]; measurement solvent Chloroform,680 nm
same,solubility at 30 min,physchem,2.51 µg/mL
O=C1C(=C2C(O)=CC(=[N+]3c4ccccc4-c4ccccc43)C=C2O)C([O-])=C1c1c(O)cc(-n2c3ccccc3c3ccccc32)cc1O [Example A-38],Absorption Maximum,[1]; measurement solvent Chloroform,750 nm
same,solubility at 30 min,physchem,0.88 µg/mL
NC(=O)C1N=c2/c(=C3/C(=O)C(c4ccc5cccc6c5c4NC(C(N)=O)N6)=C3O)ccc3cccc(c23)N1 (stereo not drawn) [Example A-29],Absorption Maximum,[1]; measurement solvent Chloroform,810 nm
same,solubility at 30 min,physchem,0.57 µg/mL
CCN(CC)c1cc2[nH]c(=O)c3ccc(cc3)c(=O)[nH]c3cc(=[N+](CC)CC)c(C)cc3c3c([O-])c(c3=O)c2cc1C [Example A-36],Absorption Maximum,[1]; measurement solvent Chloroform,715 nm
same,solubility at 30 min,physchem,4.29 µg/mL
NC(=O)c1cccc(N2C(=O)NC(=O)/C(=C/C=C(/C=C/c3c([O-])[nH]c(=O)n(-c4cccc(C(N)=O)c4)c3=O)c3ccccc3)C2=O)c1.[K+] [Example A-4],solubility at 30 min,[2],5.82 µg/mL
same,Absorption Maximum,[1]; measurement solvent Dimethylformamide,740 nm
CC1=CC(=[N+](c2ccccc2)c2ccccc2)S/C1=C1/C(=O)C(c2sc(N(c3ccccc3)c3ccccc3)cc2C)=C1[O-] [Example A-40],Absorption Maximum,[1]; measurement solvent Chloroform,706 nm
same,solubility at 30 min,physchem,11.2 µg/mL
O=C1C2=C(c3cnc4ccccc4n3)N(B(c3ccccc3)c3ccccc3)C(=O)C2=C(c2cnc3ccccc3n2)N1B(c1ccccc1)c1ccccc1 [Example A-21],Absorption Maximum,[1]; measurement solvent Chloroform,710 nm
same,solubility at 30 min,physchem,5.47 µg/mL
CCN1/C(=C/C2=C([O-])C(=C/c3sc4c5ccccc5ccc4[n+]3CC)/C2=O)Sc2c1ccc1ccccc21 [Example A-32],Absorption Maximum,[1]; measurement solvent Chloroform,705 nm
same,solubility at 30 min,physchem,0.42 µg/mL
CNC(=O)Nc1cc(N2CCCC2)c(C)cc1C1=C([O-])/C(=c2\cc3c4c(c2NC(=O)NC)CCC[N+]=4CCC3)C1=O [Example A-41],Absorption Maximum,[1]; measurement solvent Chloroform,710 nm
same,solubility at 30 min,physchem,0.94 µg/mL
O=C1c2ccc3c4ccc5c6ccc7c8ccc9c%10c(ccc(c%11ccc(c%12ccc(c%13ccc(c2c3%13)C(=O)N1c1ccccc1)c4c5%12)c6c7%11)c%108)C(=O)N(c1ccccc1)C9=O [Example A-2],solubility at 30 min,[2],0.64 µg/mL
same,Absorption Maximum,[1]; measurement solvent Methylene Chloride,765 nm
c1ccc2cc3c(cc2c1)C1=NC3=Nc2c3cc4ccccc4cc3c3[n]2[Cu][n]2c(c4cc5ccccc5cc4c2=NC2=NC(=N3)c3cc4ccccc4cc32)=N1 [Example A-3],Solubility,"[2]; in propylene glycol methyl ether acetate at 25° C., about 100 mg added to 1 L",0.33 µg/mL
same,Absorption Maximum,[1]; measurement solvent Chloroform,775 nm
"CCCCCCCC(CCCCCCC)N1C(=O)c2ccc3c4ccc5c6ccc7c8ccc9c%10c(ccc(c%11ccc(c%12ccc(c%13ccc(c2c3%13)C1=O)c4c5%12)c6c7%11)c%108)C(=O)N(C(CCCCCCC)CCCCCCC)C9=O [AR-4, reference compound]",solubility at 30 min,[2],32.1 µg/mL
same,Absorption Maximum,[1]; measurement solvent Chloroform,765 nm
O=C1C(c2ccc3cccc4c3c2NB(c2ccc(O)cc2)N4)=C(O)/C1=c1/ccc2cccc3c2c1=NB(c1ccc(O)cc1)N3 [Example A-31],Absorption Maximum,[1]; measurement solvent Chloroform,823 nm
same,solubility at 30 min,physchem,7.69 µg/mL
O=C1C(c2ccc(N(c3ccccc3)c3ccccc3)cc2NS(=O)(=O)C(F)(F)F)=C(O)/C1=C1/C=CC(N(c2ccccc2)c2ccccc2)=C/C1=N\S(=O)(=O)C(F)(F)F [Example A-30],Absorption Maximum,[1]; measurement solvent Chloroform,737 nm
same,solubility at 30 min,physchem,3.58 µg/mL
CC1N(C)c2cc(NC(=O)CSC(=N)N)c(C3=C([O-])/C(=c4\cc5c(cc4NC(=O)CSC(=N)N)=[N+](C)C(C)C5(C)C)C3=O)cc2C1(C)C (stereo not drawn) [Example A-23],Absorption Maximum,[1]; measurement solvent Chloroform,708 nm
same,solubility at 30 min,physchem,5.62 µg/mL
CCN1/C(=C/C2=C([O-])C(=C\c3sc4ccccc4[n+]3CC)/C(=O)C2=O)Sc2ccccc21 [Example A-43],Absorption Maximum,[1]; measurement solvent Chloroform,848 nm
same,solubility at 30 min,physchem,2.22 µg/mL
CC(=O)NC1CCC2(CC1)N=c1/c(=C3/C(=O)C(c4ccc5cccc6c5c4NC4(CCC(NC(C)=O)CC4)N6)=C3O)ccc3cccc(c13)N2 (stereo not drawn) [Example A-27],Absorption Maximum,[1]; measurement solvent Chloroform,810 nm
same,solubility at 30 min,physchem,6.74 µg/mL
CC1C(/C=C2/C(=O)C(/C=C3/C(C)c4cc(C(N)=O)ccc4N3C)=C2[O-])=[N+](C)c2ccc(C(N)=O)cc21 (stereo not drawn) [Example A-26],Absorption Maximum,[1]; measurement solvent Chloroform,665 nm
same,solubility at 30 min,physchem,11.2 µg/mL
O=C1C(c2ccc(N3CCCCC3)cc2NC(=O)C(F)(F)F)=C([O-])/C1=C1\C=CC(=[N+]2CCCCC2)C=C1NC(=O)C(F)(F)F [Example A-39],Absorption Maximum,[1]; measurement solvent Chloroform,698 nm
same,solubility at 30 min,physchem,2.68 µg/mL
"4,5-octakis(phenylthio)-3,6-{tetrakis(2,6-dimethylphenoxy)-tetrakis(n-hexyamino)}copper phthalocyanine [AR-1, reference compound]",Absorption Maximum,[1]; measurement solvent Chloroform,780 nm
CC(=O)NC1=CC(=[N+]2CCCC2)C(C)=C/C1=C1/C(=O)C(c2cc(C)c(N3CCCC3)cc2NC(C)=O)=C1[O-] [Example A-35],Absorption Maximum,[1]; measurement solvent Chloroform,700 nm
same,solubility at 30 min,physchem,5.11 µg/mL
CCOc1ccc(OCC)c2c1C1=NC/2=N\c2c3c(OCC)ccc(OCC)c3c3[n]2[Zn][n]2/c(c4c(OCC)ccc(OCC)c4/c2=N/C2=NC(=N\3)/c3c(OCC)ccc(OCC)c32)=N\1 [Example A-6],solubility at 30 min,[2],15.5 µg/mL
same,Absorption Maximum,[1]; measurement solvent Chloroform,744 nm
CCOC(=O)NC1=CC(=[N+](CC)CC)C=C/C1=C1/C(=O)C(c2ccc(N(CC)CC)cc2NC(=O)OCC)=C1[O-] [Example A-34],Absorption Maximum,[1]; measurement solvent Chloroform,680 nm
same,solubility at 30 min,physchem,7.72 µg/mL
CC1(C)c2ccccc2N(c2cc(O)c(C3=C([O-])C(=C4C(O)=CC(=[N+]5c6ccccc6C(C)(C)c6ccccc65)C=C4O)C3=O)c(O)c2)c2ccccc21 [Example A-37],Absorption Maximum,[1]; measurement solvent Chloroform,675 nm
same,solubility at 30 min,physchem,0.65 µg/mL
C/C(C1=C(O)/C(=C(/C)C2=Nc3ccccc3C2CCN)C1=O)=C1/Nc2ccccc2C1CCN (stereo not drawn) [Example A-28],Absorption Maximum,[1]; measurement solvent Chloroform,737 nm
same,solubility at 30 min,physchem,1.92 µg/mL
